Here are results for 29 compounds from US11439707B2, “Hypocrellin derivative substituted both in a peri-position and in 2-position by amino, preparation method, and application thereof” (priority 2017, dated 2022).

Data set [1] can be described thus: absorption spectrum (maximum absorption wavelength, molar extinction coefficient). Type of data set: physicochemical.
Data set [2] can be described thus: singlet oxygen efficiency test, reference rose bengal. Type of data set: physicochemical.

Regarding `COc1c(NCCCC(=O)O)c2c(=O)cc(OC)c3c4c(OC)cc(=O)c5c(O)c(NCCCC(=O)O)c6c(c(c1CC(C)=C6)c23)c54` [HC-8b], in data set [1], the maximum absorption wavelength was determined as 622 nm and the molar extinction coefficient is on record as 28,000 M^−1cm^−1. In addition, the singlet oxygen yield in data set [2] is given as 25%.
As for `COc1c(NCCS(=O)(=O)OC)c2c(=O)cc(OC)c3c4c(OC)cc(=O)c5c(O)c(NCCS(=O)(=O)OC)c6c(c(c1C(C(C)=O)C(C)=C6)c23)c54` (stereo not drawn) [HB-12b], in data set [1], the maximum absorption wavelength is given as 621 nm and the molar extinction coefficient was 22,500 M^−1cm^−1. Moreover, in data set [2], the singlet oxygen yield was 22%.
The matching figures for `COCCOCCNC(=O)C1CCC(CNc2c(NCC3CCC(C(=O)NCCOCCOC)CC3)c3c(=O)cc(OC)c4c5c(OC)cc(=O)c6c(O)c(OC)c7c(c(c2C=C(C)C7)c34)c65)CC1` (stereo not drawn) [HC-13a-NH-PEG1]: 624 nm, 30,000 M^−1cm^−1 and 32%.
The matching figures for `CCNc1c(O)c2c(=O)cc(OC)c3c4c(OC)cc(=O)c5c(NC6CCCC6)c(OC)c6c(c(c1C=C(C)C6C(C)=O)c23)c54` (stereo not drawn) [HB-44b]: 621 nm, 21,000 M^−1cm^−1 and 18%.
The like results for `COc1c(O)c2c(=O)cc(OC)c3c4c(OC)cc(=O)c5c(NCCCC(=O)NCC[N+](C)(C)C)c(NCCCC(=O)NCC[N+](C)(C)C)c6c(c(c1CC(C)=C6)c23)c54` [HC-8a-NH—C2-N^+] were, in that order, 622 nm, 30,000 M^−1cm^−1 and 29%.
With `COCCOCCOCCOCCOCCOCCOCCC(=O)N1CCC(CNc2c3c4c5c(c(OC)c(=O)c6c(O)cc(OC)c(c7c(OC)cc(NCC8CCN(C(=O)CCOCCOCCOCCOCCOCCOCCOC)CC8)c(c2=O)c74)c65)C(C(C)=O)C(C)=C3)CC1` (stereo not drawn) [HB-31c-PEG6], in data set [1], the maximum absorption wavelength was 632 nm and the molar extinction coefficient is 33,500 M^−1cm^−1. The compound also showed a singlet oxygen yield in data set [2] of 40%.
The matching figures for `CCCNc1c2c3c4c(c(OC)c(=O)c5c(O)cc(OC)c(c6c(OC)cc(NCCC)c(c1=O)c63)c54)C(C(C)=O)C(C)=C2` (stereo not drawn) [HB-33c]: 618 nm, 34,500 M^−1cm^−1 and 35%.
Take `CCNc1c2c3c4c(c(OC)c(=O)c5c(NC6CCCC6)cc(OC)c(c6c(OC)cc(O)c(c1=O)c63)c54)C(C(C)=O)C(C)=C2` (stereo not drawn) [HB-44d]: in data set [1], the maximum absorption wavelength is listed as 622 nm and the molar extinction coefficient is 21,500 M^−1cm^−1. The compound also returned a singlet oxygen yield in data set [2] of 21%.
Regarding `COc1c(O)c2c(=O)cc(OC)c3c4c(OC)cc(=O)c5c(NCC[N+]67CC[N+](C)(CC6)CC7)c(NCC[N+]67CC[N+](C)(CC6)CC7)c6c(c(c1C(C(C)=O)C(C)=C6)c23)c54` (stereo not drawn) [HB-41a], in data set [1], the maximum absorption wavelength amounted to 622 nm and the molar extinction coefficient was 32,500 M^−1cm^−1. This compound also gave a singlet oxygen yield in data set [2] of 31%.
The like results for `CCNc1c2c3c4c(c(OC)c(=O)c5c(O)cc(OC)c(c6c(OC)cc(NC7CCCC7)c(c1=O)c63)c54)C(C(C)=O)C(C)=C2` (stereo not drawn) [HB-44c] were, in that order, 624 nm, 21,000 M^−1cm^−1 and 20%.
The matching figures for `COc1c(O)c2c(=O)cc(OC)c3c4c(OC)cc(=O)c5c(NCCOC(=O)N6CC(=O)NC(=O)C6)c(NCCOC(=O)N6CC(=O)NC(=O)C6)c6c(c(c1C(C(C)=O)C(C)=C6)c23)c54` (stereo not drawn) [HB-40a]: 620 nm, 31,000 M^−1cm^−1 and 30%.
Take `COc1c2c3c4c(c(NCCCC(=O)OCCCCCC[N+](C)(C)C)c(=O)c5c(NCCCC(=O)OCCCCCC[N+](C)(C)C)cc(OC)c(c6c(OC)cc(O)c(c1=O)c63)c54)C=C(C)C2` [HC-8c-C6-N^+]: in data set [1], the maximum absorption wavelength stood at 632 nm and the molar extinction coefficient is reported as 32,500 M^−1cm^−1. This compound also had a singlet oxygen yield in data set [2] of 35%.
On to `COC(=O)C(CO)Nc1c(NC(CO)C(=O)OC)c2c(=O)cc(OC)c3c4c(OC)cc(=O)c5c(O)c(OC)c6c(c(c1C=C(C)C6C(C)=O)c23)c54` (stereo not drawn) [HB-24a], for which, in data set [1], the maximum absorption wavelength is reported as 625 nm and the molar extinction coefficient is 20,500 M^−1cm^−1. Besides, the singlet oxygen yield in data set [2] is recorded as 20%.
The like results for `COCCOCCOCCOCCOCCOCCOCCOCCOCCNC(=O)C1CCC(CNc2c3c4c5c(c(OC)c(=O)c6c(O)cc(OC)c(c7c(OC)cc(NCC8CCC(C(=O)NCCOCCOCCOCCOCCOCCOCCOCCOCCOC)CC8)c(c2=O)c74)c65)C(C(C)=O)C(C)=C3)CC1` (stereo not drawn) [HB-13c-NH-PEG8] were, in that order, 630 nm, 33,500 M^−1cm^−1 and 39%.
The matching figures for `COc1c(NCC(=O)O)c2c(=O)cc(OC)c3c4c(OC)cc(=O)c5c(O)c(NCC(=O)O)c6c(c(c1C(C(C)=O)C(C)=C6)c23)c54` (stereo not drawn) [HB-7b]: 622 nm, 28,000 M^−1cm^−1 and 25%.
The like results for `COc1c(NCCOCCO)c2c(=O)cc(OC)c3c4c(OC)cc(=O)c5c(O)c(NCCOCCO)c6c(c(c1C(C(C)=O)C(C)=C6)c23)c54` (stereo not drawn) [HB-1b] were, in that order, 622 nm, 28,000 M^−1cm^−1 and 36%.
Turning to `COCCOCCOCCOCCOCCOCCOCCC(=O)N1CCC(CNc2c3c4c5c(c(OC)c(=O)c6c(O)cc(OC)c(c7c(OC)c(Br)c(NCC8CCN(C(=O)CCOCCOCCOCCOCCOCCOCCOC)CC8)c(c2=O)c47)c65)C(C(C)=O)C(C)=C3)CC1` (stereo not drawn) [HB-31c-Br-PEG6], in data set [1], the maximum absorption wavelength is listed as 631 nm and the molar extinction coefficient is given as 33,000 M^−1cm^−1. The compound also gave a singlet oxygen yield in data set [2] of 38%.
As to `COc1c2c3c4c(c(NCCCCCC(=O)O)c(=O)c5c(NCCCCCC(=O)O)cc(OC)c(c6c(OC)cc(O)c(c1=O)c63)c54)C=C(C)C2` [HC-9c], in data set [1], the maximum absorption wavelength is reported as 628 nm and the molar extinction coefficient is given as 27,000 M^−1cm^−1. Besides, in data set [2], the singlet oxygen yield was determined as 29%.
The matching figures for `COc1c(O)c2c(=O)cc(OC)c3c4c(OC)cc(=O)c5c(NCCC(=O)NCCN6CCOCC6)c(NCCC(=O)NCCN6CCOCC6)c6c(c(c1C(C(C)=O)C(C)=C6)c23)c54` (stereo not drawn) [HB-42a]: 620 nm, 32,500 M^−1cm^−1 and 33%.
For `COC(=O)C1CCC(CNc2c3c4c5c(c(OC)c(=O)c6c(NCC7CCC(C(=O)OC)CC7)cc(OC)c(c7c(OC)cc(O)c(c2=O)c74)c65)C(C(C)=O)C(C)=C3)CC1` (stereo not drawn) [HB-13d-AcE], in data set [1], the maximum absorption wavelength is 623 nm and the molar extinction coefficient was 28,000 M^−1cm^−1. In data set [2], the singlet oxygen yield worked out at 25%.
The like results for `COCCOCCOCCOCCOCCOCCOC(=O)CCCNc1c(O)c2c(=O)cc(OC)c3c4c(OC)cc(=O)c5c(NCCCC(=O)OCCOCCOCCOCCOCCOCCOC)c(OC)c6c(c(c1C=C(C)C6)c23)c54` [HC-8b-PEG6] were, in that order, 624 nm, 30,000 M^−1cm^−1 and 32%.
The matching figures for `COc1c(O)c2c(=O)cc(OC)c3c4c(OC)cc(=O)c5c(NCCO)c(NCCO)c6c(c(c1CC(C)=C6)c23)c54` [HC-2a]: 627 nm, 28.500 M⁻¹ cm⁻¹ and 32%.
In data set [1], `COc1c(NCCO)c2c(=O)cc(OC)c3c4c(OC)cc(=O)c5c(O)c(NCCO)c6c(c(c1CC(C)=C6)c23)c54` [HC-2b] gave a maximum absorption wavelength of 624 nm and a molar extinction coefficient of 27.500 M⁻¹ cm⁻¹. Further, the singlet oxygen yield in data set [2] was found to be 33%.
The like results for `COc1c2c3c4c(c(NC(C(=O)O)C(C)C)c(=O)c5c(O)cc(OC)c(c6c(OC)cc(NC(C(=O)O)C(C)C)c(c1=O)c63)c54)C=C(C)C2C(C)=O` (stereo not drawn) [HB-22d] were, in that order, 625 nm, 21,500 M^−1cm^−1 and 22%.
The matching figures for `COCCOCCOCCOCCOCCNC(=O)C1CCC(CNc2c(O)c3c(=O)cc(OC)c4c5c(OC)cc(=O)c6c(NCC7CCC(C(=O)NCCOCCOCCOCCOCCOC)CC7)c(OC)c7c(c(c2C=C(C)C7C(C)=O)c34)c65)CC1` (stereo not drawn) [HB-13b-NH-PEG4]: 622 nm, 31,000 M^−1cm^−1 and 34%.
The matching figures for `CCCCCCNc1c(O)c2c(=O)cc(OC)c3c4c(OC)cc(=O)c5c(NCCCCCC)c(OC)c6c(c(c1C=C(C)C6)c23)c54` [HC-34b]: 620 nm, 31,500 M^−1cm^−1 and 32%.
`COc1c(NCCNCCOCCOCCOCCOCCO)c2c(=O)cc(OC)c3c4c(OC)cc(=O)c5c(O)c(NCCNCCOCCOCCOCCOCCO)c6c(c(c1C(C(C)=O)C(C)=C6)c23)c54` (stereo not drawn) [HB-5b-PEG4]: in data set [1], the maximum absorption wavelength came to 625 nm and the molar extinction coefficient was 30,500 M^−1cm^−1. In data set [2], this compound registered a singlet oxygen yield of 31%.
The matching figures for `COc1c(NCC2CCC(C(=O)OCCCC[N+](C)(C)C)CC2)c2c(=O)cc(OC)c3c4c(OC)cc(=O)c5c(O)c(NCC6CCC(C(=O)OCCCC[N+](C)(C)C)CC6)c6c(c(c1CC(C)=C6)c23)c54` (stereo not drawn) [HC-13b-C4-N^+]: 624 nm, 31,500 M^−1cm^−1 and 36%.
The matching figures for `CCCNc1c(NCCC)c2c(=O)cc(OC)c3c4c(OC)cc(=O)c5c(O)c(OC)c6c(c(c1C=C(C)C6C(C)=O)c23)c54` (stereo not drawn) [HB-33a]: 618 nm, 32,500 M^−1cm^−1 and 30%.
